According to ChEMBL document CHEMBL1135193, “N-[2-(Indan-1-yl)-3-mercapto-propionyl] amino acids as highly potent inhibitors of the three vasopeptidases (NEP, ACE, ECE): In vitro and In vivo activities” (Bioorg Med Chem Lett, 2002):

Key:
[1] = biological target: T1, Neprilysin (Oryctolagus cuniculus, UniProt P08049); assay: In vitro inhibition of Neutral endopeptidase.
T1 sequence (P08049 whole entry): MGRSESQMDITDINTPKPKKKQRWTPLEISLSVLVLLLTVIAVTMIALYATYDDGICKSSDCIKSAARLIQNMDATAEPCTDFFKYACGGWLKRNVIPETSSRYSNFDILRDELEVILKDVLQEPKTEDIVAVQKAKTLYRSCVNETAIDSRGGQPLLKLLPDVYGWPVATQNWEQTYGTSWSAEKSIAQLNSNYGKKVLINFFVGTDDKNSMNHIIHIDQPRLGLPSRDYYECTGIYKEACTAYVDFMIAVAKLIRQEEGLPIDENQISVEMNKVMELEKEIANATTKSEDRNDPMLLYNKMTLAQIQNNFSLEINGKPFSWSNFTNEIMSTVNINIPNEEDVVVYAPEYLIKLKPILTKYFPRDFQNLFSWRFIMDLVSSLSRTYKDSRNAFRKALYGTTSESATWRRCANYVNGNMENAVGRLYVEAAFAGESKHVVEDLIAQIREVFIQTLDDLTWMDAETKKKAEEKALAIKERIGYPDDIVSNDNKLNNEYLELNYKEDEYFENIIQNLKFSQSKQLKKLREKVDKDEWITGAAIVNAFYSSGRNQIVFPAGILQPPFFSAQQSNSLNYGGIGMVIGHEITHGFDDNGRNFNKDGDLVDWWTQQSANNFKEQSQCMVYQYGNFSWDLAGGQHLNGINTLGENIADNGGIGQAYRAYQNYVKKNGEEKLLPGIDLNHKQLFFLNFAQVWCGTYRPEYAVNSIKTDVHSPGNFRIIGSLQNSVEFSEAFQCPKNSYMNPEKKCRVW

[2] = biological target: T2, Angiotensin-converting enzyme (Rattus norvegicus, UniProt P47820); assay: In vitro inhibition of Angiotensin I converting enzyme.
T2 sequence (P47820 whole entry): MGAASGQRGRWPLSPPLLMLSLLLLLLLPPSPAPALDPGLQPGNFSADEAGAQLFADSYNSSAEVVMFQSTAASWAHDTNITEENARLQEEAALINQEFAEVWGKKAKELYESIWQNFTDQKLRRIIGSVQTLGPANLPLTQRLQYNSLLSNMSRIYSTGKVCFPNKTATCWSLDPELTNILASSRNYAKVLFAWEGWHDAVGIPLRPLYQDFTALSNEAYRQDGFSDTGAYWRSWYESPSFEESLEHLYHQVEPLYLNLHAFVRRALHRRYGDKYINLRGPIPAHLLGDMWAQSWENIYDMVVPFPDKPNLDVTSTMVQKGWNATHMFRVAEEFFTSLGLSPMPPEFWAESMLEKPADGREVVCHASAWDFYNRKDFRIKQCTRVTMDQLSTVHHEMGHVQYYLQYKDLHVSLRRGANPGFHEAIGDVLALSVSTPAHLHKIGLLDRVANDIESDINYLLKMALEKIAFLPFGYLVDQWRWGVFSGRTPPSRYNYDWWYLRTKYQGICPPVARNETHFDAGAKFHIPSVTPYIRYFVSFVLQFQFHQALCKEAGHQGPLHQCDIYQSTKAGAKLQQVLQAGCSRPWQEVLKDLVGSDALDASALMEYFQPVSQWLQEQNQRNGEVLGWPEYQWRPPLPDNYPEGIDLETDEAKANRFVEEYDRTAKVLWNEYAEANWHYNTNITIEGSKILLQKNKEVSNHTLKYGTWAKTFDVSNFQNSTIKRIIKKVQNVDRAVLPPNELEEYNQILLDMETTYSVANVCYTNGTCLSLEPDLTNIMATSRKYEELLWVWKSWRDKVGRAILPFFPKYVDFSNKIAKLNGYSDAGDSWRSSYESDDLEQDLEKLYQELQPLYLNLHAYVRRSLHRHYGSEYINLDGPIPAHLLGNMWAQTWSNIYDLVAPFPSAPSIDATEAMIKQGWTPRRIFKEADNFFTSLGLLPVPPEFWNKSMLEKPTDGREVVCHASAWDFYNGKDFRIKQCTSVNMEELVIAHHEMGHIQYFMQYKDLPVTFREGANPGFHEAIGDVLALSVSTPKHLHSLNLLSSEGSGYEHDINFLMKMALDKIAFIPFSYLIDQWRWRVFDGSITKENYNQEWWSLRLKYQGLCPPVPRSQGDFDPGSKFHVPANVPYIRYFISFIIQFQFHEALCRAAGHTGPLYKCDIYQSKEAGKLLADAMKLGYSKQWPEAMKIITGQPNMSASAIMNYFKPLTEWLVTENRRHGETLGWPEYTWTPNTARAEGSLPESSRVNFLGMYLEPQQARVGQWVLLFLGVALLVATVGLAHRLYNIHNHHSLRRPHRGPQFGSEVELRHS

[3] = biological target: T3, Endothelin-converting enzyme 1 (Homo sapiens, UniProt P42892); assay: In vitro inhibition of endothelin converting enzyme.
T3 sequence (P42892 whole entry): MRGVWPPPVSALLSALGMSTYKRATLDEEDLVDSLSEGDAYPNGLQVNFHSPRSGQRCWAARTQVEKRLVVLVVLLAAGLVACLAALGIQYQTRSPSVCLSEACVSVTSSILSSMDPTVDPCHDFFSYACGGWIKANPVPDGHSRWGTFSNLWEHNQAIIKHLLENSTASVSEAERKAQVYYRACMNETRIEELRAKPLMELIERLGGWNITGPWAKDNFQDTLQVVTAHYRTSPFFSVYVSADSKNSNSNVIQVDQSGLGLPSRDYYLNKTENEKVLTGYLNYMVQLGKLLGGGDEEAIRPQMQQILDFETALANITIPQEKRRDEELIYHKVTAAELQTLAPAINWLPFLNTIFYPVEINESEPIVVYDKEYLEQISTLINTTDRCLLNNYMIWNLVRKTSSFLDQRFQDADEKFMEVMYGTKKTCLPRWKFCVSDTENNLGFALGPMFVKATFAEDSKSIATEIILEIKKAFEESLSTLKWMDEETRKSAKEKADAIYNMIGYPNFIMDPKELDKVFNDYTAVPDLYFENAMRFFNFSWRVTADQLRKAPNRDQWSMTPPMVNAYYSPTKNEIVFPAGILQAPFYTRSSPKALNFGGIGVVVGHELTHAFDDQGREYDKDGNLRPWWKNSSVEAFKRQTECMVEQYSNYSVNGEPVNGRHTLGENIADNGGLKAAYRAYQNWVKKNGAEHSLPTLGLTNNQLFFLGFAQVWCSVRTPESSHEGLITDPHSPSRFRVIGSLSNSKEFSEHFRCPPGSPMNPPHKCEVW

[4] = tested on: Rattus norvegicus; assay: Increase in MAP on intravenous injection of AI in vehicle at 1 nmol/kg iv in male wistar rats; type: functional
[5] = tested on: Rattus norvegicus; assay: Increase in mean arterial pressure (MAP) in anesthetized male wistar rats on iv injection of 1 nmol/kg big ET-1; type: functional, Artery
[6] = biological target: T4, Neprilysin (Mus musculus) (UniProt Q61391); assay: In vivo inhibition of lung Neutral endopeptidase in mice was determined by blockage of enzyme at 25 mg/kg iv of compound; type: organism-based; parameters: dose 25 mg/kg
T4 sequence (whole entry): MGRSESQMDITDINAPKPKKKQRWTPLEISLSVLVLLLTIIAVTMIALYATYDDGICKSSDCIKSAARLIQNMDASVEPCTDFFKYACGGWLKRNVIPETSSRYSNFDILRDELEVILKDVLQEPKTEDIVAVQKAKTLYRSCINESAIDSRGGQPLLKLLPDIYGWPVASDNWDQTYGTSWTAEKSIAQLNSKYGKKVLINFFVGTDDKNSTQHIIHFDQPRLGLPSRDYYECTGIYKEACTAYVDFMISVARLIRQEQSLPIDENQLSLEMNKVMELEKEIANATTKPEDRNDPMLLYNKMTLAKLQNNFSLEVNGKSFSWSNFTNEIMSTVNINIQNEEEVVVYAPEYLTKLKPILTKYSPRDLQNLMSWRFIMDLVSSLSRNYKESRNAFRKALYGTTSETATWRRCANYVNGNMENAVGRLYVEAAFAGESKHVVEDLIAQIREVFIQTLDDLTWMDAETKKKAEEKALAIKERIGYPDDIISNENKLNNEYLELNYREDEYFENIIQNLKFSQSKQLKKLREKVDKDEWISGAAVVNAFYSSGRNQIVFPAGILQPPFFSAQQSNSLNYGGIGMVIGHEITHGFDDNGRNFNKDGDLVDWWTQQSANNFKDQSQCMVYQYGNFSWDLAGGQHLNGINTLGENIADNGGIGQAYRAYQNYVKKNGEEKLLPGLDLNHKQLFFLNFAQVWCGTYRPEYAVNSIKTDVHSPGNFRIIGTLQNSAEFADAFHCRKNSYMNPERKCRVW

[7] = tested on: Rattus norvegicus; assay: Decrease of mean arterial pressure (MAP) on iv administration of sodium salt at 30 mg/kg at 5 or 15 min prior to the big ET-1 challenge in wistar rats; type: functional, Artery

Row | Compound | Ki [1] [nM] | Ki [2] [nM] | Ki [3] [nM] | inhibition [6] [%] | MAP [4] [mmHg] | MAP [5] [mmHg] | MAP [7] [mmHg]
1 | N#Cc1ccc2c(c1)CCC2C(CS)C(=O)NC(Cc1c[nH]c2ccccc12)C(=O)O (stereo unspecified) | 11 | 3 | 210 |  |  |  | 
2 | CN(C)c1ccc2c(c1)CCC2C(CS)C(=O)NC(Cc1c[nH]c2ccccc12)C(=O)O (stereo unspecified) | 15 | 44 | 370 |  |  |  | 
3 | COc1ccc2c(c1)C(C(CS)C(=O)NC(Cc1c[nH]c3ccccc13)C(=O)O)CC2 (stereo unspecified) | 11 | 35 | 79 |  |  |  | 
4 | COc1cccc2c1CCC2C(CS)C(=O)NC(Cc1c[nH]c2ccccc12)C(=O)O (stereo unspecified) | 16 | 8 | 760 |  |  |  | 
5 | COc1ccc2c(c1)CC[C@@H]2[C@@H](CS)C(=O)N[C@@H](Cc1c[nH]c2ccccc12)C(=O)O | 1.3 | 24 | 10 |  |  |  | 
6 | COc1ccc2c(c1)CC[C@H]2[C@H](CS)C(=O)N[C@@H](Cc1c[nH]c2ccccc12)C(=O)O | 30 | 70 | 1460 |  |  |  | 
7 | COc1ccc2c(c1)CC[C@@H]2[C@H](CS)C(=O)N[C@@H](Cc1c[nH]c2ccccc12)C(=O)O | 2.7 | 4.6 | 100 |  |  |  | 
8 | COc1cc2c(cc1OC)C(C(CS)C(=O)NC(Cc1c[nH]c3ccccc13)C(=O)O)CC2 (stereo unspecified) | 78 | 78 | 560 |  |  |  | 
9 | COc1ccc2c(c1)CCC2C(CS)C(=O)NC(Cc1c[nH]c2ccccc12)C(=O)O (stereo unspecified) | 5 | 11 | 22 |  |  |  | 
10 | CSc1ccc2c(c1)CCC2C(CS)C(=O)NC(Cc1c[nH]c2ccccc12)C(=O)O (stereo unspecified) | 6 | 14 | 35 |  |  |  | 
11 | COc1ccc2c(c1)CC[C@H]2[C@@H](CS)C(=O)N[C@@H](Cc1c[nH]c2ccccc12)C(=O)O | 15 | 30 | 180 |  |  |  | 
12 | O=C(O)C(Cc1c[nH]c2ccccc12)NC(=O)C(CS)C1CCc2cc(-c3ccccc3)ccc21 (stereo unspecified) | 14 | 27 | 140 |  |  |  | 

Second part, led by results:

Row | Ki [1] [nM] | Ki [2] [nM] | Ki [3] [nM] | inhibition [6] [%] | Compound | MAP [4] [mmHg] | MAP [5] [mmHg] | MAP [7] [mmHg]
13 | 9.4 | 58 | 110 |  | O=C(O)[C@H](Cc1c[nH]c2ccccc12)NC(=O)[C@@H](CS)[C@@H]1CCc2cc(Br)ccc21 |  |  | 
14 | 4 | 7 | 90 |  | O=C(O)C(Cc1c[nH]c2ccccc12)NC(=O)C(CS)C1CCc2cc(O)ccc21 (stereo unspecified) |  |  | 
15 | 5 | 12 | 31 |  | O=C(O)C(Cc1c[nH]c2ccccc12)NC(=O)C(CS)C1CCc2cc(Br)ccc21 (stereo unspecified) |  |  | 
16 | 1.8 | 55 | 18 |  | O=C(O)[C@H](Cc1c[nH]c2ccccc12)NC(=O)[C@H](CS)[C@H]1CCc2cc(Br)ccc21 |  |  | 
17 | 3.8 | 4.1 | 28 | 70 | O=C(O)[C@H](Cc1c[nH]c2ccccc12)NC(=O)[C@@H](CS)[C@H]1CCc2cc(Br)ccc21 | 15 | 57.2 | -15.2
18 | 13 | 66 | 90 |  | O=C(O)[C@H](Cc1c[nH]c2ccccc12)NC(=O)[C@H](CS)[C@@H]1CCc2cc(Br)ccc21 |  |  | 
19 | 8 | 18 | 47 |  | CCOc1ccc2c(c1)CCC2C(CS)C(=O)NC(Cc1c[nH]c2ccccc12)C(=O)O (stereo unspecified) |  |  | 
